# Patent US9045491B2, “Thienyl [3,2-D] pyrimidin-4-one compounds, preparation method, pharmaceutical compositions and use thereof” (SHANGHAI INSTITUTE OF MATERIA MEDICA, CHINESE ACADEMY OF …, priority 2011, dated 2015)
# Counter-ions that a name gives are not always drawn.
# How the values were obtained:
# Format in all cases: biochemical
# [1] = target: dipeptidyl peptidase 7 (DPP 7) (Homo sapiens, UniProt Q9UHL4); experiment: DPP 7 activity screening; conditions: N.I. = No Inhibition
# Outline: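 Sample dissolved in DMSO, final DMSO kept at a level not affecting activity; tested at a single concentration from preliminary screening (e.g. 20 μg/mL). Dose-response data fitted to sigmoidal variable-slope model with bottom and top fixed at 0 and 100.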
# [2] = target: T1, FAP (Homo sapiens, UniProt Q12884); experiment: FAP inhibition (Table 1); conditions: N.I. = No Inhibition
# T1 sequence (Q12884 1-760): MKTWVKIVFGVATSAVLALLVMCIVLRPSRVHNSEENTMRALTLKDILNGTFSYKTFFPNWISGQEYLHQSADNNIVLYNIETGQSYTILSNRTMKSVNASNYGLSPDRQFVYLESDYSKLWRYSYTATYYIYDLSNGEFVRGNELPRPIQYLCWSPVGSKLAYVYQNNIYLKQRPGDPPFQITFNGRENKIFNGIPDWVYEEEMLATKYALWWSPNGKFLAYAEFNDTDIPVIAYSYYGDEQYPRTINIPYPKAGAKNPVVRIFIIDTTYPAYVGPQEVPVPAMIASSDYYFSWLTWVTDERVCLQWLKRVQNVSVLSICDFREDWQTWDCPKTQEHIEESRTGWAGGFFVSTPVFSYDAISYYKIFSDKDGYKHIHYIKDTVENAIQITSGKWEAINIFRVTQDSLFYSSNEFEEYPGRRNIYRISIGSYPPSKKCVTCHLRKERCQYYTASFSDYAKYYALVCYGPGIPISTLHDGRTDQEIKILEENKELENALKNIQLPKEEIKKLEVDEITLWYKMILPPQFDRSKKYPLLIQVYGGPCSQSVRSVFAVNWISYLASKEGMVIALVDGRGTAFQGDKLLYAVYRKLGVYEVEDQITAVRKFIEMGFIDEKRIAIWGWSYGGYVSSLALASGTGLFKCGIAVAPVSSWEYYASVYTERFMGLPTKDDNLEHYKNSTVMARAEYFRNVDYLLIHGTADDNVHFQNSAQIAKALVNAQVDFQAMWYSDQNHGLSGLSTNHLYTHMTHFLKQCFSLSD
# [3] = target: T2, Human DPP 9 (Homo sapiens, UniProt Q86TI2); experiment: DPP 9 activity screening (Ala-Pro-AMC fluorescence); conditions: N.I. = No Inhibition
# T2 construct: made in house; host or cells: insect cells, baculovirus Bac-to-Bac
# T2 sequence (Q86TI2 whole entry): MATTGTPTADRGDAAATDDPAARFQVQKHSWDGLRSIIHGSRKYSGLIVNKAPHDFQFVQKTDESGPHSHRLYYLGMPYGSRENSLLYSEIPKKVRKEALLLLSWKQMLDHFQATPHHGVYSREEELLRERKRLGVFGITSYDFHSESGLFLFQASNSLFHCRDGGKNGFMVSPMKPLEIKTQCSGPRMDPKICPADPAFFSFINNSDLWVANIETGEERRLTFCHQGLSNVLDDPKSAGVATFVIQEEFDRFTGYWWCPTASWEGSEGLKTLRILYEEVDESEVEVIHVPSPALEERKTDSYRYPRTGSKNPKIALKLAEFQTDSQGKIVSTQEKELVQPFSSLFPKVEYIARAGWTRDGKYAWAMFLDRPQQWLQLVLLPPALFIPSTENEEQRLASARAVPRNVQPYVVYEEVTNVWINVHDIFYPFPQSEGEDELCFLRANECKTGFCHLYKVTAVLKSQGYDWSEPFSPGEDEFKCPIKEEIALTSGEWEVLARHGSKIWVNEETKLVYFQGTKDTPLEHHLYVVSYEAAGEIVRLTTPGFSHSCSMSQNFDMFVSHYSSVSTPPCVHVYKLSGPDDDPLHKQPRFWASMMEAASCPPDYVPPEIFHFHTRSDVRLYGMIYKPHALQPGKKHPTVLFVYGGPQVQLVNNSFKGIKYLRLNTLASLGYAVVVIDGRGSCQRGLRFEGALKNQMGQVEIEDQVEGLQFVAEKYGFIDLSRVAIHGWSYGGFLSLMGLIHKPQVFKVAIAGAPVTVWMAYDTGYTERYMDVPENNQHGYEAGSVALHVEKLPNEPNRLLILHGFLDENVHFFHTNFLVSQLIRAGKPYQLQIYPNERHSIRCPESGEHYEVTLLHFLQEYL
# Outline: (§1)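 Insect-cell baculovirus-expressed human enzymes hydrolyse Ala-Pro-AMC; AMC release monitored kinetically as fluorescence rate (ex 355/em 460 nm). Primary screen at a single concentration (e.g. 20 μg/mL); dose–response fitted to variable-slope sigmoid with bottom/top fixed at 0 and 100.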
# [4] = target: T3, human DPP IV (Homo sapiens, UniProt P27487); experiment: DPP IV activity screening (Ala-Pro-AMC fluorescence)
# T3 construct: extracellular fragment of protease DPP IV (aa29-766); made in house; host or cells: baculovirus expression system Bac-to-Bac
# T3 sequence (P27487 29-766): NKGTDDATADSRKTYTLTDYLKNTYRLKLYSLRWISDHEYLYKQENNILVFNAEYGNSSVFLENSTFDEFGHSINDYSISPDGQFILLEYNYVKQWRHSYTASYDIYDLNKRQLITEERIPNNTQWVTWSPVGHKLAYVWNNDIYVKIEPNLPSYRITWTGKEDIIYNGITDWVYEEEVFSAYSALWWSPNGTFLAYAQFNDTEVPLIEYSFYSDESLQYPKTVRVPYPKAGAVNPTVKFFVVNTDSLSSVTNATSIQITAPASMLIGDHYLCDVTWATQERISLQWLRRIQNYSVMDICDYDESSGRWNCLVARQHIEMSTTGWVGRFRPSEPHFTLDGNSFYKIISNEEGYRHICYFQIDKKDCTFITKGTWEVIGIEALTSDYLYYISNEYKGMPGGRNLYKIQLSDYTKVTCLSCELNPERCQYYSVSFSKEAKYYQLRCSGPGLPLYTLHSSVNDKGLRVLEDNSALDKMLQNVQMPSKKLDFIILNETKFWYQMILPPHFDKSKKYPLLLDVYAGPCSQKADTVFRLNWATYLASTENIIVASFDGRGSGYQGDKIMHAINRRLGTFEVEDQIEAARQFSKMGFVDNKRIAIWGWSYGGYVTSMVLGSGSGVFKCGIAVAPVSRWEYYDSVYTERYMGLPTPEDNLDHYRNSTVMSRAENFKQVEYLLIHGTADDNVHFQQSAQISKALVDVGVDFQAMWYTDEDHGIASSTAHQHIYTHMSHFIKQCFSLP
# Outline: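 DPP IV activity is taken as the linear rate of fluorescence change at 460 nm. Samples are dissolved in DMSO and screened at a single concentration (e.g. 20 μg/mL). Dose-response data are fit to a variable-slope sigmoidal model with bottom and top fixed at 0 and 100.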
# [5] = target: T4, human DPP 8 (Homo sapiens, UniProt Q6V1X1); experiment: DPP 8 activity screening (Ala-Pro-AMC fluorescence); conditions: N.I. = No Inhibition
# T4 construct: made in house; host or cells: insect cells, baculovirus Bac-to-Bac
# T4 sequence (Q6V1X1 whole entry): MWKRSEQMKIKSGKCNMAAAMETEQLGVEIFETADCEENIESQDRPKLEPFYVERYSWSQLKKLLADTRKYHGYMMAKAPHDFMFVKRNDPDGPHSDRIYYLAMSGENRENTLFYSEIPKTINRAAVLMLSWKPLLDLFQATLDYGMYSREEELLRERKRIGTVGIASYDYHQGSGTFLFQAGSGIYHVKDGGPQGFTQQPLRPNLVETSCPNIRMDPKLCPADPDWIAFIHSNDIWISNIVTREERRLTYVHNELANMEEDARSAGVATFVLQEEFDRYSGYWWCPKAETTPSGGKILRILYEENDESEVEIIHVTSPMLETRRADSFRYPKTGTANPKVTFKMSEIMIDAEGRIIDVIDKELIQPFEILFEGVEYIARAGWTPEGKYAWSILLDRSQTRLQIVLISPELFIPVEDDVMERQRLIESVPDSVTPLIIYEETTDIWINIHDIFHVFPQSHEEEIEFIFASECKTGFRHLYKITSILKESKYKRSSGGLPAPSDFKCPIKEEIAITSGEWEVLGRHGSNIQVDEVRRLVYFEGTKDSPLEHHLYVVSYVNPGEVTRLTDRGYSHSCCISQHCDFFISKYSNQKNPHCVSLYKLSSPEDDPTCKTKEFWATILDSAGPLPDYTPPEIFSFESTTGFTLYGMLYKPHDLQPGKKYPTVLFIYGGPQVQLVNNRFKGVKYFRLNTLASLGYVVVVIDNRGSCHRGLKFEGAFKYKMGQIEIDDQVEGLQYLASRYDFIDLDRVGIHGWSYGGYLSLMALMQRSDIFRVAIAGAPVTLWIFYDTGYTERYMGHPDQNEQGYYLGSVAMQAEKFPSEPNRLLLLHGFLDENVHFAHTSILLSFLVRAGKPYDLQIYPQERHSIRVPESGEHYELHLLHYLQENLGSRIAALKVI
# Outline: as §1
SMILES,DPP 7 IC50 [1],IC50 [2],IC50 [3],IC50 [4],IC50 [5],IC50 [1],FAP IC50 [2],DPP 9 IC50 [3],DPP 8 IC50 [5]
"N#Cc1ccccc1Cn1c(N2CCC[C@@H](N)C2)nc2cc(C(=O)N3CCS(=O)(=O)CC3)sc2c1=O [Compound 114, (R)-2-((2-(3-aminopiperidin-1-yl)-6-(1,1-dioxidothiomorpholine-4-carbonyl)-4-oxothieno[3,2-d]pyrimidin-3(4H)-yl)-methyl)benzonitrile]",N.I.,52.2 µM,307 µM,0.0222 µM,56.2 µM,,,,
"CCNC(=O)c1csc2c(=O)n(Cc3ccccc3C#N)c(N3CCC[C@@H](N)C3)nc12 [Compound 71, (R)-2-(3-aminopiperidin-1-yl)-3-(2-cyanobenzyl)-N-ethyl-4-oxo-3,4-dihydrothieno[3,2-d]pyrimidine-7-carboxamide]",,52.1 µM,238 µM,0.0143 µM,26.8 µM,144 µM,,,
"CC(=O)OCc1csc2c(=O)n(Cc3ccccc3C#N)c(N3CCC[C@@H](N)C3)nc12 [Compound 56, (R)-(2-(3-aminopiperidin-1-yl)-3-(2-cyanobenzyl)-4-oxo-3,4-dihydrothieno-[3,2-d]pyrimidin-7-yl)methyl acetate]",N.I.,,,0.0113 µM,,,N.I.,N.I.,N.I.
"COC(=O)[C@H](Cc1ccc(O)cc1)NC(=O)c1cc2nc(N3CCC[C@@H](N)C3)n(Cc3ccccc3C#N)c(=O)c2s1 [Compound 101, (S)-methyl 2-(2-((R)-3-aminopiperidin-1-yl)-3-(2-cyanobenzyl)-4-oxo-3,4-dihydrothieno[3,2-d]pyrimidine-6-carboxamido)-3-(4-hydroxyphenyl)-propanoate]",N.I.,42 µM,14.8 µM,0.0306 µM,13.5 µM,,,,
"N#Cc1ccccc1Cn1c(N2CCC[C@@H](N)C2)nc2cc(CO)sc2c1=O [Compound 28, (R)-2-((2-(3-aminopiperidin-1-yl)-6-(hydroxymethyl)-4-oxothieno[3,2-d]-pyrimidin-3(4H)-yl)methyl)benzonitrile]",N.I.,85.9 µM,35.2 µM,0.0102 µM,27 µM,,,,
"COCCNC(=O)c1csc2c(=O)n(Cc3ccccc3C#N)c(N3CCC[C@@H](N)C3)nc12 [Compound 74, (R)-2-(3-aminopiperidin-1-yl)-3-(2-cyanobenzyl)-N-(2-methoxyethyl)-4-oxo-3,4-dihydrothieno[3,2-d]pyrimidine-7-carboxamide]",N.I.,30.6 µM,92.9 µM,0.0106 µM,18.4 µM,,,,
"N#Cc1ccccc1Cn1c(N2CCC[C@@H](N)C2)nc2c(C(=O)N3CCCC3)csc2c1=O [Compound 76, (R)-2-((2-(3-aminopiperidin-1-yl)-4-oxo-7-(pyrrolidine-1-carbonyl)thieno-[3,2-d]pyrimidin-3(4H)-yl)methyl)-benzonitrile]",N.I.,,,0.0816 µM,,,N.I.,N.I.,N.I.
"CS(=O)(=O)Nc1csc2c(=O)n(Cc3ccccc3C#N)c(N3CCC[C@@H](N)C3)nc12 [Compound 85, (R)-N-(2-(3-aminopiperidin-1-yl)-3-(2-cyanobenzyl)-4-oxo-3,4-dihydrothieno-[3,2-d]pyrimidin-7-yl) methanesulfonamide]",N.I.,255 µM,,0.0371 µM,339 µM,,,N.I.,
"CN(C)C(=O)c1cc2nc(N3CCC[C@@H](N)C3)n(Cc3ccccc3C#N)c(=O)c2s1 [Compound 105, (R)-2-(3-aminopiperidin-1-yl)-3-(2-cyanobenzyl)-N,N-dimethyl-4-oxo-3,4-dihydrothieno[3,2-d]pyrimidine-6-carboxamide]",N.I.,200 µM,257 µM,0.027 µM,,,,,N.I.
"N#Cc1ccccc1Cn1c(N2CCC[C@@H](N)C2)nc2c(C(=O)NC3CCCCC3)csc2c1=O [Compound 80, (R)-2-(3-aminopiperidin-1-yl)-3-(2-cyanobenzyl)-N-cyclohexyl-4-oxo-3,4-dihydrothieno[3,2-d]pyrimidine-7-carboxamide]",N.I.,28.7 µM,115 µM,0.026 µM,25.7 µM,,,,
"Cc1ccc(CNC(=O)c2cc3nc(N4CCC[C@@H](N)C4)n(Cc4ccccc4C#N)c(=O)c3s2)cc1 [Compound 122, (R)-2-(3-aminopiperidin-1-yl)-3-(2-cyanobenzyl)-N-(4-methylbenzyl)-4-oxo-3,4-dihydrothieno[3,2-d]-pyrimidine-6-carboxamide]",N.I.,,53.1 µM,0.0263 µM,,,N.I.,,N.I.
"COCCCNC(=O)c1csc2c(=O)n(Cc3ccccc3C#N)c(N3CCC[C@@H](N)C3)nc12 [Compound 75, (R)-2-(3-aminopiperidin-1-yl)-3-(2-cyanobenzyl)-N-(3-methoxypropyl)-4-oxo-3,4-dihydrothieno[3,2-d]pyrimidine-7-carboxamide]",N.I.,28.3 µM,91.7 µM,0.00815 µM,23 µM,,,,
"COC(=O)CNC(=O)c1cc2nc(N3CCC[C@@H](N)C3)n(Cc3ccccc3C#N)c(=O)c2s1 [Compound 99, (R)-methyl 2-(2-(3-aminopiperidin-1-yl)-3-(2-cyanobenzyl)-4-oxo-3,4-dihydrothieno[3,2-d]pyrimidine-6-carboxamido)acetate]",N.I.,178 µM,179 µM,0.0247 µM,66 µM,,,,
"N#Cc1ccccc1Cn1c(N2CCC[C@@H](N)C2)nc2c(C(=O)O)csc2c1=O [Compound 44, (R)-2-(3-aminopiperidin-1-yl)-3-(2-cyanobenzyl)-4-oxo-3,4-dihydrothieno-[3,2-d]pyrimidine-7-carboxylic acid hydrochloride]",,,,0.00976 µM,,39.2 µM,N.I.,N.I.,N.I.
"COC(=O)c1csc2c(=O)n(Cc3ccccc3C#N)c(N3CCC[C@@H](N)C3)nc12 [Compound 57, (R)-methyl 2-(3-aminopiperidin-1-yl)-3-(2-cyanobenzyl)-4-oxo-3,4-dihydrothieno[3,2-d]pyrimidine-7-carboxylate]",,,,0.02 µM,,69.5 µM,N.I.,N.I.,N.I.
"CNC(=O)c1csc2c(=O)n(Cc3ccccc3C#N)c(N3CCC[C@@H](N)C3)nc12 [Compound 61, (R)-2-(3-aminopiperidin-1-yl)-3-(2-cyanobenzyl)-N-methyl-4-oxo-3,4-dihydrothieno[3,2-d]pyrimidine-7-carboxamide]",N.I.,30.3 µM,254 µM,0.0139 µM,45.9 µM,,,,
"COC(=O)[C@@H](NC(=O)c1csc2c(=O)n(Cc3ccccc3C#N)c(N3CCC[C@@H](N)C3)nc12)c1ccccc1 [Compound 66, (S)-methyl 2-(2-((R)-3-aminopiperidin-1-yl)-3-(2-cyanobenzyl)-4-oxo-3,4-dihydrothieno[3,2-d]pyrimidine-7-carboxamido)-2-phenylacetate]",N.I.,18.8 µM,47.1 µM,0.0358 µM,14.4 µM,,,,
"N#Cc1ccccc1Cn1c(N2CCC[C@@H](N)C2)nc2cc(C(=O)NCc3cccc(C(F)(F)F)c3)sc2c1=O [Compound 120, (R)-2-(3-aminopiperidin-1-yl)-3-(2-cyanobenzyl)-4-oxo-N-(3-(trifluoromethyl)benzyl)-3,4-dihydrothieno[3,2-d]pyrimidine-6-carboxamide]",N.I.,87.4 µM,49.7 µM,0.0286 µM,53.8 µM,,,,
